Measurements: ChEMBL document CHEMBL1201862, “PubChem BioAssay data set” (2004)
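Cells were grown in 96-well plates and exposed to each compound for 48 hours at five concentrations; endpoints were interpolated linearly between bracketing concentrations, or set to the highest concentration if not reached. GI50 is the concentration that inhibits growth by half.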 The source made the active and inactive calls. Rule as the data show it: active = GI50 up to about 1.1 µM and inactive = higher.

Tests used:
Assay in all cases: NCI-60 cell line screen, 48 h
SF-539 = system: SF-539
TK-10 = system: TK-10
SK-MEL-28 = system: SK-MEL-28
SF-268 = system: SF-268
A549 = system: A549
MOLT-4 = system: MOLT-4
SK-MEL-2 = system: SK-MEL-2
SF-295 = system: SF-295
M14 = system: M14
HT-29 = system: HT-29
DMS-114 = system: DMS-114
786-0 = system: 786-0
SNB-75 = system: SNB-75
K562 = system: K562
NCI-H226 = system: NCI-H226
M19-MEL = system: M19-MEL
RPMI-8226 = system: RPMI-8226
RXF 393 = system: RXF 393
SN12C = system: SN12C
LXFL 529 = system: LXFL 529
HOP-92 = system: HOP-92
Malme-3M = system: Malme-3M
UACC-257 = system: UACC-257
SR = system: SR
ACHN = system: ACHN
UACC-62 = system: UACC-62
NCI-H522 = system: NCI-H522
KM12 = system: KM12
HOP-62 = system: HOP-62
SW-620 = system: SW-620
UO-31 = system: UO-31
SNB-19 = system: SNB-19
COLO 205 = system: COLO 205
NCI-H460 = system: NCI-H460
CAKI-1 = system: CAKI-1
U-251 = system: U-251
OVCAR-3 = system: OVCAR-3
OVCAR-4 = system: OVCAR-4
OVCAR-8 = system: OVCAR-8
HCT-15 = system: HCT-15
DMS-273 = system: DMS-273
CCRF-CEM = system: CCRF-CEM
EKVX = system: EKVX
HL-60 = system: HL-60
RXF 631 = system: RXF 631
KM-20L2 = system: KM-20L2
HCT-116 = system: HCT-116
HCC 2998 = system: HCC 2998
NCI-H23 = system: NCI-H23
DLD-1 = system: DLD-1
HOP-18 = system: HOP-18
NCI/ADR-RES = system: NCI/ADR-RES
T47D = system: T47D
MDA-MB-435 = system: MDA-MB-435
A498 = system: A498
BT-549 = system: BT-549
SNB-78 = system: SNB-78
OVCAR-5 = system: OVCAR-5
PC-3 = system: PC-3
XF498 = system: XF498
IGROV-1 = system: IGROV-1
MDA-N = system: MDA-N
Hs-578T = system: Hs-578T
SK-OV-3 = system: SK-OV-3
SK-MEL-5 = system: SK-MEL-5
MDA-MB-231 = system: MDA-MB-231
LOX IMVI = system: LOX IMVI
DU-145 = system: DU-145
MCF7 = system: MCF7

Compound: CCOC1=C2N=C(C(CC)c3ccccc3F)N=C2C(=O)c2ccccc21 (stereo not given)
- GI50 (SF-539): > 100 µM (inactive)
- GI50 (TK-10): 3.27 µM (inactive)
- GI50 (SK-MEL-28): > 100 µM (inactive)
- GI50 (SF-268): > 100 µM (inactive)
- GI50 (A549): > 100 µM (inactive)
- GI50 (MOLT-4): 24 µM (inactive)
- GI50 (SK-MEL-2): > 100 µM (inactive)
- GI50 (SF-295): > 100 µM (inactive)
- GI50 (M14): > 100 µM (inactive)
- GI50 (HT-29): > 100 µM (inactive)
- GI50 (DMS-114): > 100 µM (inactive)
- GI50 (786-0): > 100 µM (inactive)
- GI50 (SNB-75): 25.4 µM (inactive)
- GI50 (K562): > 100 µM (inactive)
- GI50 (NCI-H226): > 100 µM (inactive)
- GI50 (M19-MEL): > 100 µM (inactive)
- GI50 (RPMI-8226): > 100 µM (inactive)
- GI50 (RXF 393): 2.98 µM (inactive)
- GI50 (SN12C): > 100 µM (inactive)
- GI50 (LXFL 529): > 100 µM (inactive)
- GI50 (HOP-92): 95.7 µM (inactive)
- GI50 (Malme-3M): > 100 µM (inactive)
- GI50 (UACC-257): > 100 µM (inactive)
- GI50 (SR): > 100 µM (inactive)
- GI50 (ACHN): > 100 µM (inactive)
- GI50 (UACC-62): > 100 µM (inactive)
- GI50 (NCI-H522): > 100 µM (inactive)
- GI50 (KM12): > 100 µM (inactive)
- GI50 (HOP-62): > 100 µM (inactive)
- GI50 (SW-620): > 100 µM (inactive)
- GI50 (UO-31): > 100 µM (inactive)
- GI50 (SNB-19): > 100 µM (inactive)
- GI50 (COLO 205): > 100 µM (inactive)
- GI50 (NCI-H460): > 100 µM (inactive)
- GI50 (CAKI-1): > 100 µM (inactive)
- GI50 (U-251): 8.45 µM (inactive)
- GI50 (OVCAR-3): > 100 µM (inactive)
- GI50 (OVCAR-4): > 100 µM (inactive)
- GI50 (OVCAR-8): > 100 µM (inactive)
- GI50 (HCT-15): > 100 µM
- GI50 (DMS-273): > 100 µM (inactive)
- GI50 (CCRF-CEM): > 100 µM (inactive)
- GI50 (EKVX): > 100 µM (inactive)
- GI50 (HL-60): > 100 µM (inactive)
- GI50 (RXF 631): > 100 µM (inactive)
- GI50 (KM-20L2): > 100 µM (inactive)
- GI50 (HCT-116): > 100 µM (inactive)
- GI50 (HCC 2998): > 100 µM (inactive)
- GI50 (NCI-H23): > 100 µM (inactive)

Compound: N=C(N)NCCCCCCC(=O)NC(O)C(=O)NCCCCNCCCN (stereo not given)
- GI50 (SF-539): > 628 µM (inactive)
- GI50 (TK-10): > 750 µM (inactive)
- GI50 (SK-MEL-28): > 750 µM (inactive)
- GI50 (SF-268): > 750 µM (inactive)
- GI50 (A549): 473 µM (inactive)
- GI50 (MOLT-4): 659 µM (inactive)
- GI50 (SK-MEL-2): 505 µM (inactive)
- GI50 (DLD-1): 723 µM (inactive)
- GI50 (SF-295): 553 µM (inactive)
- GI50 (M14): > 750 µM (inactive)
- GI50 (HT-29): > 750 µM (inactive)
- GI50 (DMS-114): 69.2 µM (inactive)
- GI50 (786-0): 3070 µM (inactive)
- GI50 (SNB-75): 335 µM (inactive)
- GI50 (K562): 551 µM (inactive)
- GI50 (NCI-H226): 687 µM (inactive)
- GI50 (M19-MEL): 719 µM (inactive)
- GI50 (RPMI-8226): 483 µM (inactive)
- GI50 (RXF 393): 700 µM (inactive)
- GI50 (HOP-18): 710 µM (inactive)
- GI50 (NCI/ADR-RES): > 750 µM (inactive)
- GI50 (SN12C): > 750 µM (inactive)
- GI50 (HOP-92): 360 µM (inactive)
- GI50 (T47D): > 750 µM (inactive)
- GI50 (Malme-3M): 582 µM (inactive)
- GI50 (MDA-MB-435): > 750 µM (inactive)
- GI50 (UACC-257): > 750 µM (inactive)
- GI50 (SR): 1280 µM (inactive)
- GI50 (ACHN): > 750 µM (inactive)
- GI50 (UACC-62): 711 µM (inactive)
- GI50 (A498): > 750 µM (inactive)
- GI50 (BT-549): 372 µM (inactive)
- GI50 (NCI-H522): 479 µM (inactive)
- GI50 (KM12): 577 µM (inactive)
- GI50 (HOP-62): 726 µM (inactive)
- GI50 (SW-620): > 750 µM (inactive)
- GI50 (SNB-78): > 750 µM (inactive)
- GI50 (OVCAR-5): > 750 µM (inactive)
- GI50 (PC-3): > 750 µM (inactive)
- GI50 (UO-31): 590 µM (inactive)
- GI50 (SNB-19): 695 µM (inactive)
- GI50 (COLO 205): 600 µM (inactive)
- GI50 (XF498): 100 µM (inactive)
- GI50 (NCI-H460): 718 µM (inactive)
- GI50 (IGROV-1): 665 µM (inactive)
- GI50 (U-251): 611 µM (inactive)
- GI50 (OVCAR-3): 474 µM (inactive)
- GI50 (OVCAR-4): 550 µM (inactive)
- GI50 (OVCAR-8): 641 µM (inactive)
- GI50 (MDA-N): 2360 µM (inactive)
- GI50 (Hs-578T): 748 µM (inactive)
- GI50 (SK-OV-3): > 750 µM (inactive)
- GI50 (HCT-15): 656 µM
- GI50 (DMS-273): > 750 µM (inactive)
- GI50 (CCRF-CEM): 515 µM (inactive)
- GI50 (EKVX): 643 µM (inactive)
- GI50 (HL-60): > 750 µM (inactive)
- GI50 (SK-MEL-5): > 750 µM (inactive)
- GI50 (KM-20L2): 600 µM (inactive)
- GI50 (MDA-MB-231): > 750 µM (inactive)
- GI50 (HCT-116): 711 µM (inactive)
- GI50 (LOX IMVI): 605 µM (inactive)
- GI50 (HCC 2998): > 562 µM (inactive)
- GI50 (DU-145): > 750 µM (inactive)
- GI50 (NCI-H23): 684 µM (inactive)
- GI50 (MCF7): 745 µM (inactive)
